Data set [1] deals with CT2A (murine malignant glioma). The experiment in a line: UV light activated psoralen, Cell-Titer-Glo Luminescence Cell Viability Assay. It counts as cell-based. Conditions: psoralen 40 ρM; UV light 0, 0.25, 0.5, 1.0 J/cm^2; N=4; FIG. 51A. The protocol: (§1) Metabolic cell viability was also assessed visually using Methylene blue staining and ATP-induced Luminescence imaging (Cell-Titer-Glo® Luminescence Cell Viability Assay). The luminescence imaging permitted investigation of the cytotoxicity of psoralen activated directly with a UV lamp, and in the absence of phosphors and x-ray radiation. […] The psoralen concentration was 40 ρM.

Data set [2] concerns 4T1-HER2 cells. Conditions: multi-variable regression on 36 independent irradiation experiments; irradiated.
Method: In-vitro X-PACT studies were conducted on cells prepared in the following manner. Cells were incubated in appropriate growing media and buffers before being trypsinized and plated evenly onto twelve (12) well plates for 24 hours. […] The plates were then irradiated with x-rays by placing the plate at a known distance from the x-ray source (e.g., 50 cm). After irradiation the cells were incubated on the plate for 48 hours prior to performing flow cytometry. For compatibility with 96-well Guava Nexin® assay, the remaining cells were again trypsinized (after the 48 hour incubation) and plated onto a 96-well plate. The phosphors used in this evaluation were designated as NP 200 and GTP 4300. […]
Cells plated in 12-well plates, where individual wells in each plate may receive different experimental conditions (e.g. psoralen concentration), but the same x-ray dose (i.e. all wells in a given plate receive the same x-ray dose). The first metric is metabolically viable cell count (or cell viability) determined from the number of whole cells per well as determined using forward scattering (FSC). […] (All wells on a given plate receive the same dose.) The second metric is Annexin V (+) signal, which is the fraction of the metabolically viable cells which expressed a positive Annexin V signal as determined by flow cell cytometry, and include any cells advancing toward early or late apoptotic cell death. […]
The subject of data set [3] is syngeneic 4T1-HER2 tumors. Description: In-vivo X-PACT trial on syngeneic tumors. On the set-up: species or system BALB/c mice. Conditions: treatment arms with x-ray; 5 μM psoralen (AMT), 100 μg of phosphor; FIG. 54. On the procedure:
There were 4 arms of the trial: […] […] There were 6-8 mice per arm, and the study was repeated a second time, yielding effective sample sizes of 12-16. […] A consistent x-ray irradiation technique was used for all arms (except saline control) which was 2 Gy delivered at 75 kVp by 30 mA in 3 minutes.

For data set [4], the system named is KP158B (sarcoma). Description: UV light activated psoralen, Cell-Titer-Glo Luminescence Cell Viability Assay. Conditions: psoralen 40 ρM; UV light 0, 0.25, 0.5, 1.0 J/cm^2; N=4; FIG. 51A. It counts as cell-based, murine. On the procedure: as §1
Data set [5] concerns 4T1. Described as above. In kind it is cell-based, murine. Conditions: psoralen 40 ρM; UV light 0, 0.25, 0.5, 1.0 J/cm^2; N=4; FIG. 51A. The protocol:
as §1

For data set [6] the following is noted: cited from earlier work.
For data set [7] the following is noted: in vivo; cited from earlier work.

Where two headings read alike, the source gives them in different places.

On to `O=c1ccc2cc3ccoc3cc2o1` [psoralen], for which the viable cells entry in data set [1], in data set [4] and in data set [5] was “reduce viable cells” throughout. Also, the “cytotoxicity (Annexin V signal)” value in data set [2] is listed as “neither psoralen nor phosphor alone had a strong effect”. In data set [3], the “tumor growth effect” value is “slightly higher component effect”.

Consider `Oc1cccc(-c2c3nc(c(-c4cccc(O)c4)c4ccc([nH]4)c(-c4cccc(O)c4)c4nc(c(-c5cccc(O)c5)c5ccc2[nH]5)CC4)C=C3)c1` [Foscan, Tetra (m-hydroxyphenyl) chlorin], for which, in data set [6] (Table 3), the Length of photosensitization is on record as 2 weeks. Further, the “duration of skin photosensitivity” value in data set [6] is “approximately 2 weeks”.

Turning to Vitamin B12, the route of excretion result in data set [7] is given as “excreted by glomerular filtration”.

Take `CC(=O)[O-].CC(=O)[O-].CCc1c(CC)c2cc3nc(cnc4cc(OCCOCCOCCOC)c(OCCOCCOCCOC)cc4ncc4nc(cc1[n-]2)C(CCCO)=C4C)C(C)=C3CCCO.O.[Lu+3]` [Lutetium texahyrin, Motexafin lutetium]: in data set [6] (in vivo), the Length of photosensitization is 24 to 48 h and the “duration of skin photosensitivity” value was 24 to 48 h.

These data come from patent publication US12121746B2, “Energy augmentation structures, energy emitters or energy collectors containing the same, and their use in methods and systems for treating cell proliferation disorders” (priority 2019, dated 2024).
